Measurements from paper PMC10035389, “Safety, Tolerability, and Pharmacokinetics of TAK-931, a Cell Division Cycle 7 Inhibitor, in Patients with Advanced Solid Tumors: A Phase I First-in-Human Study” (Cancer Research Communications, 2022).

Tested on: patients with advanced solid tumors
Experiment: Safety and tolerability (adverse events, NCI CTCAE v4.03), phase I dose-escalation study
Type: in vivo, human
From the text: This was a phase I, open-label, dose-escalation study of single-agent TAK-931. Dose escalation of TAK-931 was cohort based with an adaptive design using Bayesian logistic regression modeling (BLRM) with pharmacokinetic guidance. BLRM also guided MTD estimation from the second dose. Patients were enrolled in one of four dosing schedules (A, B, D, or E; Supplementary Fig. S1) to receive TAK-931. Two additional schedules were planned (C and F) but no patients were enrolled. Schedule A included an initial accelerated escalation phase. TAK-931 was administered once daily for 14 days in 21-day cycles starting at 30 mg, which doubled until a cycle 1 dose-limiting toxicity (DLT) was observed, when 2 patients experienced grade ≥2 treatment-related toxicity, or when maximum geometric mean plasma concentration (Cmax) for the cohort reached or exceeded 800 ng/mL [threshold for off-target adverse effects (hypotension) in animal toxicology studies]; then dose escalation transitioned to modified Fibonacci escalation steps. In schedule B (based on experience with schedule A), patients received TAK-931 once daily or twice daily for 7 days on, 7 days off in a 28-day cycle starting at 60 mg. In schedule D, patients received TAK-931 once daily starting at 20 mg in 21-day cycles; BLRM was not applied but further adjustments were dependent on observed safety, pharmacokinetics, and pharmacodynamics. In schedule E, patients received TAK-931 once daily for 2 days on, 5 days off starting at 100 mg in 21-day cycles. A safety expansion was permitted once MTD had been determined. Prophylactic growth factors were permitted in all schedules to manage severe and/or febrile neutropenia. TAK-931 treatment continued until unacceptable toxicity, disease progression, or patient withdrawal.
DLTs included: cycle 1 grade ≥3 hematologic and non-hematologic events or grade 2 non-hematologic events considered by the investigator to be TAK-931-related, grade 2 ejection fraction decrease, >2 weeks delay in initiating cycle 2 (1 week for schedules D and E), and >50% TAK-931 dose reduction in cycle 1 due to treatment-related adverse events (AEs; see Supplementary Materials and Methods for full DLT criteria). Toxicity was evaluated by NCI Common Terminology Criteria for Adverse Events (version 4.03). Tumor response was measured using the RECIST (version 1.1) ([16]). Serial blood samples for pharmacokinetic analysis were collected during cycle 1 on days 1 and 7 (schedule B), 1 and 8 (schedules A and D), or 1 and 9 (schedule E). Pharmacokinetic parameters were estimated from concentration–time profiles using noncompartmental methods with WinNonlin® Phoenix™ version 8.1 (Certara, Princeton, NJ). pMCM2 was detected semiquantitatively by IHC of histologic sections of formalin-fixed, paraffin-embedded skin and tumor biopsies using anti-pMCM2 (3378-1, Epitomics Inc.; ref. [15]). Quantitative image analysis determined pMCM2 levels as “histologic score nuclei (H-score).” Skin punch biopsies (2–4 mm) were obtained during screening or predose on cycle 1, day 1 and for patients in schedules A, B, and D, postdose on any drug dosing day after 3 consecutive dosing days in cycle 1. A postdose skin biopsy was obtained on day 9 in schedule E. Fresh tumor biopsy pairs were collected predose and postdose on any dosing day after the completion of 3 consecutive dosing days in cycle 1 from patients who received doses considered to have biological effect.
The safety population included patients who received ≥1 dose of TAK-931. The pharmacodynamic-evaluable population comprised patients from the safety population with a baseline and ≥1 additional postbaseline biopsy sample that was suitable for pMCM2 analysis. The pharmacokinetic-evaluable population included patients with sufficient dosing and TAK-931 concentration–time data to estimate pharmacokinetic parameters. […]

[1] = Schedule A (once daily 14 days, 21-day cycles) n = 25
[2] = Schedule B (7 days on, 7 days off, 28-day cycles) n = 24
[3] = Schedule D (continuous once daily) n = 18

Cc1[nH]ncc1-c1cc2nc([C@@H]3CC4CCN3CC4)[nH]c(=O)c2s1 [TAK-931, simurosertib]
Abdominal pain, AE any grade [1]: 2 (8) n (%)
Alopecia, AE any grade [1]: 6 (24) n (%)
Anemia, AE any grade [1]: 6 (24) n (%)
Anemia, grade ≥3 AE [1]: 1 (4) n %
Arthralgia, AE any grade [1]: 3 (12) n (%)
Blood creatinine increased, AE any grade [1]: 3 (12) n (%)
Constipation, AE any grade [1]: 2 (8) n (%)
Cough, AE any grade [1]: 3 (12) n (%)
Decreased appetite, AE any grade [1]: 7 (28) n (%)
Decreased appetite, grade ≥3 AE [1]: 2 (8) n %
Diarrhea, AE any grade [1]: 7 (28) n (%)
Dry skin, AE any grade [1]: 1 (4) n (%)
Edema peripheral, AE any grade [1]: 4 (16) n (%)
Electrocardiogram QT prolonged, AE any grade [1]: 3 (12) n (%)
Fall, AE any grade [1]: 0 (0) n (%)
Fatigue, AE any grade [1]: 2 (8) n (%)
Febrile neutropenia, AE any grade [1]: 1 (4) n (%)
Febrile neutropenia, grade ≥3 AE [1]: 1 (4) n %
Gamma-glutamyltransferase increased, AE any grade [1]: 0 (0) n (%)
Gamma-glutamyltransferase increased, grade ≥3 AE [1]: 0 (0) n %
Hypoalbuminemia, AE any grade [1]: 4 (16) n (%)
Hypoalbuminemia, grade ≥3 AE [1]: 0 (0) n %
Hypophosphatemia, grade ≥3 AE [1]: 1 (4) n %
Hypotension, AE any grade [1]: 2 (8) n (%)
Leukopenia, AE any grade [1]: 5 (20) n (%)
Leukopenia, grade ≥3 AE [1]: 5 (20) n %
Lymphocyte count decreased, AE any grade [1]: 3 (12) n (%)
Lymphocyte count decreased, grade ≥3 AE [1]: 1 (4) n %
Lymphopenia, AE any grade [1]: 2 (8) n (%)
Malaise, AE any grade [1]: 5 (20) n (%)
Nasopharyngitis, AE any grade [1]: 2 (8) n (%)
Nausea, AE any grade [1]: 15 (60) n (%)
Neutropenia, AE any grade [1]: 12 (48) n (%)
Neutropenia, grade ≥3 AE [1]: 11 (44) n %
Orthostatic hypotension, AE any grade [1]: 0 (0) n (%)
Platelet count decreased, AE any grade [1]: 2 (8) n (%)
Pruritus, AE any grade [1]: 0 (0) n (%)
Pyrexia, AE any grade [1]: 5 (20) n (%)
Rash popular, AE any grade [1]: 0 (0) n (%)
Stomatitis, AE any grade [1]: 0 (0) n (%)
Thrombocytopenia, AE any grade [1]: 1 (4) n (%)
Tumor pain, AE any grade [1]: 3 (12) n (%)
Vomiting, AE any grade [1]: 7 (28) n (%)
White blood cell count decreased, AE any grade [1]: 8 (32) n (%)
White blood cell count decreased, grade ≥3 AE [1]: 3 (12) n %
Abdominal pain, AE any grade [2]: 3 (13) n (%)
Alopecia, AE any grade [2]: 13 (54) n (%)
Anemia, AE any grade [2]: 4 (17) n (%)
Anemia, grade ≥3 AE [2]: 3 (13) n %
Arthralgia, AE any grade [2]: 1 (4) n (%)
Blood creatinine increased, AE any grade [2]: 3 (13) n (%)
Constipation, AE any grade [2]: 5 (21) n (%)
Cough, AE any grade [2]: 0 (0) n (%)
Decreased appetite, AE any grade [2]: 5 (21) n (%)
Decreased appetite, grade ≥3 AE [2]: 0 (0) n %
Diarrhea, AE any grade [2]: 4 (17) n (%)
Dry skin, AE any grade [2]: 1 (4) n (%)
Edema peripheral, AE any grade [2]: 1 (4) n (%)
Electrocardiogram QT prolonged, AE any grade [2]: 0 (0) n (%)
Fall, AE any grade [2]: 1 (4) n (%)
Fatigue, AE any grade [2]: 5 (21) n (%)
Febrile neutropenia, AE any grade [2]: 3 (13) n (%)
Febrile neutropenia, grade ≥3 AE [2]: 3 (13) n %
Gamma-glutamyltransferase increased, AE any grade [2]: 3 (13) n (%)
Gamma-glutamyltransferase increased, grade ≥3 AE [2]: 2 (8) n %
Hypoalbuminemia, AE any grade [2]: 2 (8) n (%)
Hypoalbuminemia, grade ≥3 AE [2]: 2 (8) n %
Hypophosphatemia, grade ≥3 AE [2]: 1 (4) n %
Hypotension, AE any grade [2]: 4 (17) n (%)
Leukopenia, AE any grade [2]: 13 (54) n (%)
Leukopenia, grade ≥3 AE [2]: 6 (25) n %
Lymphocyte count decreased, AE any grade [2]: 0 (0) n (%)
Lymphocyte count decreased, grade ≥3 AE [2]: 0 (0) n %
Lymphopenia, AE any grade [2]: 3 (13) n (%)
Malaise, AE any grade [2]: 1 (4) n (%)
Nasopharyngitis, AE any grade [2]: 3 (13) n (%)
Nausea, AE any grade [2]: 21 (88) n (%)
Neutropenia, AE any grade [2]: 19 (79) n (%)
Neutropenia, grade ≥3 AE [2]: 15 (63) n %
Orthostatic hypotension, AE any grade [2]: 1 (4) n (%)
Platelet count decreased, AE any grade [2]: 1 (4) n (%)
Pruritus, AE any grade [2]: 3 (13) n (%)
Pyrexia, AE any grade [2]: 1 (4) n (%)
Rash popular, AE any grade [2]: 3 (13) n (%)
Stomatitis, AE any grade [2]: 6 (25) n (%)
Thrombocytopenia, AE any grade [2]: 4 (17) n (%)
Tumor pain, AE any grade [2]: 1 (4) n (%)
Vomiting, AE any grade [2]: 13 (54) n (%)
White blood cell count decreased, AE any grade [2]: 5 (21) n (%)
White blood cell count decreased, grade ≥3 AE [2]: 3 (13) n %
Abdominal pain, AE any grade [3]: 0 (0) n (%)
Alopecia, AE any grade [3]: 3 (17) n (%)
Anemia, AE any grade [3]: 3 (17) n (%)
Anemia, grade ≥3 AE [3]: 1 (6) n %
Arthralgia, AE any grade [3]: 1 (6) n (%)
Blood creatinine increased, AE any grade [3]: 1 (6) n (%)
Constipation, AE any grade [3]: 2 (11) n (%)
Cough, AE any grade [3]: 0 (0) n (%)
Decreased appetite, AE any grade [3]: 6 (33) n (%)
Decreased appetite, grade ≥3 AE [3]: 1 (6) n %
Diarrhea, AE any grade [3]: 1 (6) n (%)
Dry skin, AE any grade [3]: 1 (6) n (%)
Edema peripheral, AE any grade [3]: 2 (11) n (%)
Electrocardiogram QT prolonged, AE any grade [3]: 0 (0) n (%)
Fall, AE any grade [3]: 1 (6) n (%)
Fatigue, AE any grade [3]: 3 (17) n (%)
Febrile neutropenia, AE any grade [3]: 0 (0) n (%)
Febrile neutropenia, grade ≥3 AE [3]: 0 (0) n %
Gamma-glutamyltransferase increased, AE any grade [3]: 0 (0) n (%)
Gamma-glutamyltransferase increased, grade ≥3 AE [3]: 0 (0) n %
Hypoalbuminemia, AE any grade [3]: 0 (0) n (%)
Hypoalbuminemia, grade ≥3 AE [3]: 0 (0) n %
Hypophosphatemia, grade ≥3 AE [3]: 0 (0) n %
Hypotension, AE any grade [3]: 0 (0) n (%)
Leukopenia, AE any grade [3]: 0 (0) n (%)
Leukopenia, grade ≥3 AE [3]: 0 (0) n %
Lymphocyte count decreased, AE any grade [3]: 0 (0) n (%)
Lymphocyte count decreased, grade ≥3 AE [3]: 0 (0) n %
Lymphopenia, AE any grade [3]: 0 (0) n (%)
Malaise, AE any grade [3]: 3 (17) n (%)
Nasopharyngitis, AE any grade [3]: 1 (6) n (%)
Nausea, AE any grade [3]: 5 (28) n (%)
Neutropenia, AE any grade [3]: 6 (33) n (%)
Neutropenia, grade ≥3 AE [3]: 3 (17) n %
Orthostatic hypotension, AE any grade [3]: 0 (0) n (%)
Platelet count decreased, AE any grade [3]: 2 (11) n (%)
Pruritus, AE any grade [3]: 1 (6) n (%)
Pyrexia, AE any grade [3]: 2 (11) n (%)
